According to patent publication US20210215714A1, “COMPLEMENT ALTERNATIVE PATHWAY-ASSOCIATED NEPHROPATHY BIOMARKERS” (Achillion Pharmaceuticals, Inc., priority 2018, published 2021):

System: Ba
Test: Phase 2a study: urinary Ba (MicroVue Ba Enzyme Immunoassay)
Type: in vivo, human
[1] = Patient A, 100 mg TID, Day 1/0 Hour
[2] = Patient A, 100 mg TID, Day 7/0 Hour
[3] = Patient A, 100 mg TID, Day 15 Taper
[4] = Patient A, 100 mg TID, Day 16 Taper
[5] = Patient A, 100 mg TID, Day 17 Taper
[6] = Patient A, 100 mg TID, Day 21 Taper
[7] = Patient A, 100 mg TID, Follow-Up Day 24
[8] = Patient A, 100 mg TID, Follow-Up Day 28
[9] = Patient A, 100 mg TID, Follow-Up Day 49
[10] = Patient B, 100 mg TID, Day 1/0 Hour
[11] = Patient B, 100 mg TID, Day 7/0 Hour
[12] = Patient B, 100 mg TID, Day 15 Taper
[13] = Patient B, 100 mg TID, Day 16 Taper
[14] = Patient B, 100 mg TID, Day 17 Taper
[15] = Patient B, 100 mg TID, Day 21 Taper
[16] = Patient B, 100 mg TID, Follow-Up Day 24
[17] = Patient B, 100 mg TID, Follow-Up Day 28
[18] = Patient B, 100 mg TID, Follow-Up Day 49
[19] = Patient C, 200 mg TID, Day 1/0 Hour
[20] = Patient C, 200 mg TID, Day 7/0 Hour
[21] = Patient C, 200 mg TID, Day 15 Taper
[22] = Patient C, 200 mg TID, Day 16 Taper
[23] = Patient C, 200 mg TID, Day 17 Taper
[24] = Patient C, 200 mg TID, Day 21 Taper
[25] = Patient C, 200 mg TID, Follow-Up Day 24
[26] = Patient C, 200 mg TID, Follow-Up Day 28
[27] = Patient C, 200 mg TID, Follow-Up Day 49
[28] = Patient D, 200 mg TID, Day 1/0 Hour
[29] = Patient D, 200 mg TID, Day 7/0 Hour
[30] = Patient D, 200 mg TID, Day 15 Taper
[31] = Patient D, 200 mg TID, Day 17 Taper
[32] = Patient D, 200 mg TID, Day 21 Taper

## CC(=O)c1nn(CC(=O)N2C[C@H](F)C[C@H]2C(=O)Nc2cccc(Br)n2)c2ccc(-c3cnc(C)nc3)cc12 [Compound 1, (2S,4R)-1-(2-(3-acetyl-5-(2-methylpyrimidin-5-yl)-1H-indazol-1-yl)acetyl)-N-(6-bromopyridin-2-yl)-4-fluoropyrrolidine-2-carboxamide]
[1]
  Ba/ALB: 22.1 ng/mg
  Ba/Cr: 5.7 µg/mmol
  Urine Ba: 47.1 ng/mL
Patient A, 100 mg TID, Day 4
  Ba/ALB: 8.4 ng/mg
  Ba/Cr: 1.8 µg/mmol
  Urine Ba: 14.7 ng/mL
[2]
  Ba/ALB: 7.5 ng/mg
  Ba/Cr: 1.8 µg/mmol
  Urine Ba: 11.6 ng/mL
Patient A, 100 mg TID, Day 10
  Ba/ALB: 6.1 ng/mg
  Ba/Cr: 1.4 µg/mmol
  Urine Ba: 8.6 ng/mL
[3]
  Ba/ALB: 11.4 ng/mg
  Ba/Cr: 1.6 µg/mmol
  Urine Ba: 11.9 ng/mL
[4]
  Ba/ALB: 16.3 ng/mg
  Ba/Cr: 2.3 µg/mmol
  Urine Ba: 17.4 ng/mL
[5]
  Ba/ALB: 18.6 ng/mg
  Ba/Cr: 2.1 µg/mmol
  Urine Ba: 21.2 ng/mL
[6]
  Ba/ALB: 65.5 ng/mg
  Ba/Cr: 9.2 µg/mmol
  Urine Ba: 79.8 ng/mL
[7]
  Ba/ALB: 83.3 ng/mg
  Ba/Cr: 11.5 µg/mmol
  Urine Ba: 115.3 ng/mL
[8]
  Ba/ALB: 77.1 ng/mg
  Ba/Cr: 10.2 µg/mmol
  Urine Ba: 100.8 ng/mL
[9]
  Ba/ALB: 26.5 ng/mg
  Ba/Cr: 3.8 µg/mmol
  Urine Ba: 16.5 ng/mL
Patient A, 100 mg TID, Screen
  Ba/ALB: 15.0 ng/mg
  Ba/Cr: 3.4 µg/mmol
  Urine Ba: 28.3 ng/mL
[10]
  Ba/ALB: 225 ng/mg
  Ba/Cr: 129.9 µg/mmol
  Urine Ba: 793 ng/mL
Patient B, 100 mg TID, Day 4
  Ba/ALB: 47 ng/mg
  Ba/Cr: 12.4 µg/mmol
  Urine Ba: 158 ng/mL
[11]
  Ba/ALB: 41 ng/mg
  Ba/Cr: 10.2 µg/mmol
  Urine Ba: 149 ng/mL
Patient B, 100 mg TID, Day 10
  Ba/ALB: 28 ng/mg
  Ba/Cr: 7.0 µg/mmol
  Urine Ba: 53 ng/mL
Patient B, 100 mg TID, Day 14
  Ba/ALB: 54 ng/mg
  Ba/Cr: 14.2 µg/mmol
  Urine Ba: 238 ng/mL
[12]
  Ba/ALB: 58 ng/mg
  Ba/Cr: 19.0 µg/mmol
  Urine Ba: 209 ng/mL
[13]
  Ba/ALB: 77 ng/mg
  Ba/Cr: 25.2 µg/mmol
  Urine Ba: 318 ng/mL
[14]
  Ba/ALB: 55 ng/mg
  Urine Ba: 164 ng/mL
[15]
  Ba/ALB: 43 ng/mg
  Ba/Cr: 15.9 µg/mmol
  Urine Ba: 129 ng/mL
[16]
  Ba/ALB: 87 ng/mg
  Ba/Cr: 41.1 µg/mmol
  Urine Ba: 251 ng/mL
[17]
  Ba/ALB: 65 ng/mg
  Ba/Cr: 24.6 µg/mmol
  Urine Ba: 175 ng/mL
[18]
  Ba/ALB: 771 ng/mg
  Ba/Cr: 108.0 µg/mmol
  Urine Ba: 1727 ng/mL
Patient B, 100 mg TID, Screen
  Ba/ALB: 97 ng/mg
  Ba/Cr: 47.1 µg/mmol
  Urine Ba: 348 ng/mL
[19]
  Ba/ALB: 2.9 ng/mg
  Ba/Cr: 0.168 µg/mmol
  Urine Ba: 0.30 ng/mL
Patient C, 200 mg TID, Day 4
  Ba/ALB: 1.5 ng/mg
  Ba/Cr: 0.040 µg/mmol
  Urine Ba: 0.08 ng/mL
[20]
  Ba/ALB: 2.6 ng/mg
  Ba/Cr: 0.056 µg/mmol
  Urine Ba: 0.21 ng/mL
Patient C, 200 mg TID, Day 10
  Ba/ALB: 1.5 ng/mg
  Ba/Cr: 0.053 µg/mmol
  Urine Ba: 0.08 ng/mL
Patient C, 200 mg TID, Day 14
  Ba/ALB: 2.2 ng/mg
  Ba/Cr: 0.068 µg/mmol
  Urine Ba: 0.09 ng/mL
[21]
  Ba/ALB: 2.2 ng/mg
  Ba/Cr: 0.099 µg/mmol
  Urine Ba: 0.15 ng/mL
[22]
  Ba/ALB: 3.0 ng/mg
  Ba/Cr: 0.078 µg/mmol
  Urine Ba: 0.15 ng/mL
[23]
  Ba/ALB: 1.8 ng/mg
  Ba/Cr: 0.058 µg/mmol
  Urine Ba: 0.13 ng/mL
[24]
  Ba/ALB: 7.5 ng/mg
  Ba/Cr: 0.175 µg/mmol
  Urine Ba: 0.49 ng/mL
[25]
  Ba/ALB: 2.3 ng/mg
  Ba/Cr: 0.075 µg/mmol
  Urine Ba: 0.14 ng/mL
[26]
  Ba/ALB: 4.5 ng/mg
  Ba/Cr: 0.213 µg/mmol
  Urine Ba: 0.62 ng/mL
[27]
  Ba/ALB: 1.7 ng/mg
  Ba/Cr: 0.036 µg/mmol
  Urine Ba: 0.16 ng/mL
Patient C, 200 mg TID, Screen
  Ba/ALB: 1.5 ng/mg
  Ba/Cr: 0.065 µg/mmol
  Urine Ba: 0.12 ng/mL
[28]
  Ba/ALB: 10.9 ng/mg
  Ba/Cr: 2.5 µg/mmol
  Urine Ba: 14.2 ng/mL
Patient D, 200 mg TID, Day 4
  Ba/ALB: 3.5 ng/mg
  Ba/Cr: 1.0 µg/mmol
  Urine Ba: 4.4 ng/mL
[29]
  Ba/ALB: 6.5 ng/mg
  Ba/Cr: 2.1 µg/mmol
  Urine Ba: 2.4 ng/mL
Patient D, 200 mg TID, Day 10
  Ba/ALB: 2.8 ng/mg
  Ba/Cr: 1.8 µg/mmol
  Urine Ba: 1.8 ng/mL
Patient D, 200 mg TID, Day 14
  Ba/ALB: 4.6 ng/mg
  Ba/Cr: 1.3 µg/mmol
  Urine Ba: 4.1 ng/mL
[30]
  Ba/ALB: 4.3 ng/mg
  Ba/Cr: 2.0 µg/mmol
  Urine Ba: 8.4 ng/mL
[31]
  Ba/ALB: 2.9 ng/mg
  Ba/Cr: 1.7 µg/mmol
  Urine Ba: 5.0 ng/mL
[32]
  Ba/ALB: 7.8 ng/mg
  Ba/Cr: 4.4 µg/mmol
